Assay results reported in patent US20220202739A1, “ENDOCANNABINOID MIMETIC AND ANTI-INFLAMMATORY COMPOUND CONTAINING COMPOSITIONS, METHODS OF PREPARATION AND USES THEREOF” (priority 2019, published 2022).
Where two headings read alike, the source gives them in different places.

How the values were obtained:
Assay type in all cases: cell-based
FAAH = assay: Gene expression custom microarray, human skin fibroblasts (Example 1): FAAH; conditions: for fold induction at 10 µM: Skin fibroblast, read-out: FAAH↓ gene expression, fold increase or decrease vs untreated cells
Excerpt: (§1) Cell cultures: A human skin fibroblast cell culture (or cultures) was obtained through the Coriell Cell Repository from the National Institute on Aging Cell Repository (Camden, N.J.), or Promocell GmbH (Heidelberg, Germany). The initial culture was selected from the following cell lines: AG13066, AG11557, AG11796 or GM03651E. The cell lines were derived from donors as follows:
(§2) Experimental phase: When the appropriate quantity of cells had been grown, they were detached as described above, but at the final step were seeded into each well of one or more 6 well dishes. Each well received 2 ml of the cell suspension so they were seeded equally. The dishes were returned to the incubator until 85-95% confluency was reached.
(§3) It is at this stage that all wells were rinsed in PBS after aspirating the growth media. The compound(s) to be tested were previously mixed into a suitable solvent (e.g., DMSO or ethanol) that can be diluted to the desired concentration of test compound (10 μl) in the culture wells without exceeding maximum solvent concentrations and adversely effecting cell viability, and mixed with basal media. NOTE: Standard maximum levels of solvent are 0.1% for DMSO and 0.5% for ETOH. The concentration of each test compound is found in Tables 1 & 2.
(§4) Every 2 wells on the 6 well plate served as a biological replicate for the purposes of RNA isolation and genetic expression evaluations making each 6 well dish an n=3 for the test compound(s) contained in the media. Negative control plates (no test compound(s) and only basal media) were also generated. The plates were returned to the incubator for 24 hrs.
(§5) At the end of the 24 hr time period, the plates were removed from the incubator, the test media aspirated, and the cells rinsed with PBS. RNA isolation is performed using the BioRad Aurum Total RNA Mini Kit (Hercules, Calif.) per manufacturer's protocol; which is described, in brief, below: • Add 350 μl of lysis buffer to each well. Pipet multiple times to ensure thorough lysis. Add lysed cells to the collection tube. • Add 350 μl of 70% ETOH to the collection tube and mix thoroughly. • Pipet the generated lysate onto the spin column placed in a new 2 ml tube. Centrifuge for 30 sec between 8,000 and 10,000 g. • Place the spin column containing the now bound RNA, in a new 2 ml tube. Add 700 μl of low stringency wash solution to the spin column. Centrifuge for 30 sec between 8,000 and 10,000 g. Discard the flow through and replace spin column. • Add 80 μl of DNase I dilution to the spin column and incubate at room temperature for 15 minutes. • Add 700 μl of high stringency wash solution to the column and centrifuge for 30 sec between 8,000 and 10,000 g. Discard flow through. • Add 700 μl of low stringency wash solution to the column and centrifuge for 60 sec between 8,000 and 10,000 g. Discard flow through. • Centrifuge for 2 minutes to remove residual wash solution. • Transfer spin column to new 1.5 ml collection tube and add 80 μl of elution solution to the column. Allow 1 minute for saturation of the membrane and then centrifuge for 2 minutes to complete the RNA elution. • Quantify the quantity of RNA and store at −20 C° until use (no more than 1 month)
(§6) The genes tested were: • Cannabinoid receptor 1 (CB1(CNR1)) • Cannabinoid receptor 2 (CB2 (CNR2)) • Fatty acid amide hydrolase (FAAH) • Monoacylglycerol lipase (MGLL, i.e., MAGL) • Peroxisome proliferator-activated receptor gamma (PPARG) • Nuclear factor kappa-light-chain-enhancer of activated B cells (NFκβ) • Interleukin 1 Alpha (IL1alpha) • Cyclooxygenase 1 (PTGS1, i.e., COX1) • Transient receptor potential cation channel subfamily A member 1 (TRPA1) • Transient receptor potential cation channel subfamily V member 1 (TRPV1) • Transient receptor potential cation channel subfamily M member 8 (TRPM8) • Hemoglobin Subunit Beta (HBB) REFERENCE GENE • Ribosomal Protein L13a (RPL13A) REFERENCE GENE […]

MAGL = assay: Gene expression custom microarray, human skin fibroblasts (Example 1): MAGL; conditions: for fold induction at 10 µM: Skin fibroblast, read-out: MAGL↓ gene expression, fold increase or decrease vs untreated cells
Excerpt: as §1, §2, §3, §4, §5, §6

NFKB1 = assay: Gene expression custom microarray, human skin fibroblasts (Example 1): NFKB1; conditions: for fold induction at 10 µM: Skin fibroblast, read-out: NFKB1↓ gene expression, fold increase or decrease vs untreated cells
Excerpt: as §1, §2
(§7) It is at this stage that all wells were rinsed in PBS after aspirating the growth media. The compound(s) to be tested were previously mixed into a suitable solvent (e.g., DMSO or ethanol) that can be diluted to the desired concentration of test compound (10 μl) in the culture wells without exceeding maximum solvent concentrations and adversely effecting cell viability, and mixed with basal media. NOTE: Standard maximum levels of solvent are 0.1% for DMSO and 0.5% for ETOH.
as §4, §5
(§8) The genes tested were: • Cannabinoid receptor 1 (CB1(CNR1)) • Cannabinoid receptor 2 (CB2 (CNR2)) • Fatty acid amide hydrolase (FAAH) • Monoacylglycerol lipase (MGLL, i.e., MAGL) • Peroxisome proliferator-activated receptor gamma (PPARG) • Nuclear factor kappa-light-chain-enhancer of activated B cells (NFκβ) • Interleukin 1 Alpha (IL1alpha) • Cyclooxygenase 1 (PTGS1, i.e., COX1) • Transient receptor potential cation channel subfamily A member 1 (TRPA1) • Transient receptor potential cation channel subfamily V member 1 (TRPV1) • Transient receptor potential cation channel subfamily M member 8 (TRPM8) • Hemoglobin Subunit Beta (HBB) REFERENCE GENE • Ribosomal Protein L13a (RPL13A) REFERENCE GENE

PPARG = assay: Gene expression custom microarray, human skin fibroblasts (Example 1): PPARG; conditions: for fold induction at 10 µM: Skin fibroblast, read-out: PPARG↑ gene expression, fold increase or decrease vs untreated cells
Excerpt: as §1, §2, §7, §4, §5, §8

PTGS1 = assay: Gene expression custom microarray, human skin fibroblasts (Example 1): PTGS1; conditions: for fold induction at 10 µM: Skin fibroblast, read-out: PTGS1↓ gene expression, fold increase or decrease vs untreated cells
Excerpt: as §1, §2, §3, §4, §5, §6

CNR1 = assay: Gene expression custom microarray, human skin fibroblasts (Example 1): CNR1; conditions: for fold induction at 10 µM: Skin fibroblast, read-out: CNR1↑ gene expression, fold increase or decrease vs untreated cells
Excerpt: as §1, §2, §3, §4, §5, §6

CNR2 = assay: Gene expression custom microarray, human skin fibroblasts (Example 1): CNR2; conditions: human skin fibroblasts, 10 uM, 24 hr; for fold induction at 10 µM: Skin fibroblast, read-out: CNR2↑ gene expression, fold increase or decrease vs untreated cells
Excerpt: as §1, §2, §3, §4, §5, §6

IL1A = assay: Gene expression custom microarray, human skin fibroblasts (Example 1): IL1A; conditions: 24 hr; for IL1A↓ gene expression, fold increase or decrease vs untreated cells: 10 uM; for fold induction at 10 µM: Skin fibroblast, read-out: IL1A↓ gene expression, fold increase or decrease vs untreated cells
Excerpt: as §1, §2, §3, §4, §5, §6

TRPA1 = assay: Gene expression custom microarray, human skin fibroblasts (Example 1): TRPA1; conditions: for fold induction at 10 µM: Skin fibroblast, read-out: TRPA1↑ gene expression, fold increase or decrease vs untreated cells
Excerpt: as §1, §2, §3, §4, §5, §6

TRPM8 = assay: Gene expression custom microarray, human skin fibroblasts (Example 1): TRPM8; conditions: 24 hr; for TRPM8↑ gene expression, fold increase or decrease vs untreated cells: 10 uM; for fold induction at 10 µM: Skin fibroblast, read-out: TRPM8↑ gene expression, fold increase or decrease vs untreated cells
Excerpt: as §1, §2, §3, §4, §5, §6

TRPV1 = assay: Gene expression custom microarray, human skin fibroblasts (Example 1): TRPV1; conditions: 10 uM, 24 hr
Excerpt: as §1, §2, §3, §4
At the end of the 24 hr time period, the plates were removed from the incubator, the test media aspirated, and the cells rinsed with PBS. RNA isolation is performed using the BioRad Aurum Total RNA Mini Kit (Hercules, Calif.) per manufacturer's protocol; which is described, in brief, below: • Add 350 μl of lysis buffer to each well. Pipet multiple times to ensure thorough lysis. Add lysed cells to the collection tube. • Add 350 μl of 70% ETOH to the collection tube and mix thoroughly. • Pipet the generated lysate onto the spin column placed in a new 2 ml tube. Centrifuge for 30 sec between 8,000 and 10,000 g. • Place the spin column containing the now bound RNA, in a new 2 ml tube. Add 700 μl of low stringency wash solution to the spin column. Centrifuge for 30 sec between 8,000 and 10,000 g. […] Allow 1 minute for saturation of the membrane and then centrifuge for 2 minutes to complete the RNA elution. • Quantify the quantity of RNA and store at −20 C° until use (no more than 1 month) […]

[1] = human skin fibroblasts, 10 uM, 24 hr

| Compound | fold induction at 10 µM (CNR2) | fold induction at 10 µM (FAAH; [1]) | fold induction at 10 µM (IL1A) | fold induction at 10 µM (NFKB1; [1]) | fold induction at 10 µM (TRPA1; [1]) | fold induction at 10 µM (TRPM8) | fold induction at 10 µM (PPARG; [1]) | fold induction at 10 µM (PTGS1; [1]) | fold induction at 10 µM (MAGL; [1]) | also measured |
| --- | --- | --- | --- | --- | --- | --- | --- | --- | --- | --- |
| O=c1cc(-c2ccccc2)oc2cc(O)ccc12 [7-Hydroxyflavone] |  |  |  |  |  |  |  |  |  | fold induction at 10 µM (FAAH; Homo sapiens, 24 h): 1.2; fold induction at 10 µM (MAGL; Homo sapiens, 24 h): 2; fold induction at 10 µM (NFKB1; Homo sapiens, 24 h): 1.1; fold induction at 10 µM (PPARG; Homo sapiens, 24 h): 1.4; fold induction at 10 µM (PTGS1; Homo sapiens, 24 h): 1.4 |
| C=C1CC/C=C(\C)CC[C@@H]2[C@@H]1CC2(C)C [B-Caryphyllene, B-Caryophyllene] |  |  |  |  |  |  |  |  |  | CNR1↑ gene expression, fold increase or decrease vs untreated cells (CNR1; [1]): 0 fold; CNR2↑ gene expression, fold increase or decrease vs untreated cells (CNR2): 0 fold; FAAH↓ gene expression, fold increase or decrease vs untreated cells (FAAH; [1]): −1.6 fold; MAGL↓ gene expression, fold increase or decrease vs untreated cells (MAGL; [1]): 1 fold; IL1A↓ gene expression, fold increase or decrease vs untreated cells (IL1A): 0 fold; NFKB1↓ gene expression, fold increase or decrease vs untreated cells (NFKB1; [1]): −1.3 fold; PPARG↑ gene expression, fold increase or decrease vs untreated cells (PPARG; [1]): −1.6 fold; PTGS1↓ gene expression, fold increase or decrease vs untreated cells (PTGS1; [1]): −1.5 fold; TRPA1↑ gene expression, fold increase or decrease vs untreated cells (TRPA1; [1]): 0 fold; TRPM8↑ gene expression, fold increase or decrease vs untreated cells (TRPM8): 5.5 fold; TRPV1↑ gene expression, fold increase or decrease vs untreated cells (TRPV1): 2 fold |
| COc1cc(/C=C/C(=O)CC(=O)/C=C/c2ccc(O)c(OC)c2)ccc1O [Curcumin] | 55.4 | 1.8 | 4.9 | 1.1 | 4.9 | 47.9 |  |  |  | fold induction at 10 µM (CNR1; [1]): 47.4 |
| C=CCc1ccc(O)c(OC)c1 [Eugenol] | 109 | 3 | 39.2 |  | 30.1 | 152 | 1.6 |  |  | fold induction at 10 µM (CNR1; [1]): 148 |
| C[C@@H]1C(=O)O[C@H]2[C@H](O)[C@@]34[C@H]5C[C@@H](C(C)(C)C)[C@]36[C@@H](OC(=O)[C@@H]6O)O[C@@]4(C(=O)O5)[C@@]12O [Ginkolide, Ginkolide B] |  |  |  |  |  |  |  |  |  | CNR1↑ gene expression, fold increase or decrease vs untreated cells (CNR1; [1]): 1.1 fold; CNR2↑ gene expression, fold increase or decrease vs untreated cells (CNR2): −1.2 fold; FAAH↓ gene expression, fold increase or decrease vs untreated cells (FAAH; [1]): −1.1 fold; MAGL↓ gene expression, fold increase or decrease vs untreated cells (MAGL; [1]): 2.3 fold; IL1A↓ gene expression, fold increase or decrease vs untreated cells (IL1A): −3.3 fold; NFKB1↓ gene expression, fold increase or decrease vs untreated cells (NFKB1; [1]): −1.2 fold; PPARG↑ gene expression, fold increase or decrease vs untreated cells (PPARG; [1]): −1.3 fold; PTGS1↓ gene expression, fold increase or decrease vs untreated cells (PTGS1; [1]): −1.3 fold; TRPA1↑ gene expression, fold increase or decrease vs untreated cells (TRPA1; [1]): 1.1 fold; TRPM8↑ gene expression, fold increase or decrease vs untreated cells (TRPM8): 2.1 fold; TRPV1↑ gene expression, fold increase or decrease vs untreated cells (TRPV1): −2.6 fold |
| CC(C)=CCC[C@](C)(O[C@@H]1O[C@H](CO[C@@H]2O[C@@H](CO)[C@H](O)[C@H]2O)[C@@H](O)[C@H](O)[C@H]1O)[C@H]1CC[C@]2(C)[C@@H]1[C@H](O)C[C@@H]1[C@@]3(C)CC[C@H](O[C@@H]4O[C@H](CO)[C@@H](O)[C@H](O)[C@H]4O[C@@H]4O[C@H](CO)[C@@H](O)[C@H](O)[C@H]4O)C(C)(C)[C@@H]3CC[C@]12C [Ginsenoside, ginsenoside RC] |  |  |  | 1.8 |  |  |  | 7.9 |  | fold induction at 10 µM (TRPA1; Homo sapiens, 24 h): 1.5 |
| C=CCc1ccc(O)c(-c2ccc(O)c(CC=C)c2)c1 [Honokiol] | 1.3 | 2.3 | 1.8 | 1.6 | 1.4 | 1.8 | 2.3 | 1.5 | 2.7 | fold induction at 10 µM (CNR1; Homo sapiens, 24 h): 1.2 |
| CC1CCC(C(C)C)C(O)C1 (centres unmarked) [Menthol, reference compound] |  | 2 |  | 3.4 | 2.5 |  | 1.8 | 7.8 | 2.7 |  |
| COC(=O)c1ccccc1O [Methyl Salicylate, reference compound] |  |  |  | 1.9 | 3 |  | 1.8 | 1.4 | 2.4 |  |
